Results reported in patent US20030060481A1 (priority 1999, published 2003).

How the values were obtained:
[1] = test system: Wistar, adult, male, rats; test: Induction of status epilepticus by systemic pilocarpine; type: in vivo; conditions: pilocarpine 320 mg/Kg intraperitoneal
[2] = test system: kainate model of epilepsy; test: Onset of spontaneous recurrent seizures in the kainate model of epilepsy

Row | Structure (SMILES) | Latency for the onset of status epilepticus after injection [1] [min] | Effect on onset of spontaneous recurrent seizures (in words) [2]
1 | CC[C@@H]1C(=O)OC[C@@H]1Cc1cncn1C [pilocarpine] | 19 ± 5 | –
2 | CN1[C@@H]2C[C@@H](OC(=O)[C@H](CO)c3ccccc3)C[C@H]1[C@@H]1O[C@@H]12 [scopolamine] | – | retard or even suppress the onset of spontaneous recurrent seizures
